This assay addresses 5'-AMP-activated protein kinase catalytic subunit alpha-2 (Homo sapiens, UniProt P54646). Kind of assay: enzyme-linked immunosorbent assay. On the procedure: Compounds were assayed for their ability to activate AMPK using an enzyme-linked immunosorbent assay. Reagents and procedures for measuring AMPK activation are well known and kits for AMPK activation assays are commercially available.

The term EC50 denotes the midpoint of the concentration-response curve.

5'-AMP-activated protein kinase catalytic subunit alpha-2, sequence (P54646 whole entry): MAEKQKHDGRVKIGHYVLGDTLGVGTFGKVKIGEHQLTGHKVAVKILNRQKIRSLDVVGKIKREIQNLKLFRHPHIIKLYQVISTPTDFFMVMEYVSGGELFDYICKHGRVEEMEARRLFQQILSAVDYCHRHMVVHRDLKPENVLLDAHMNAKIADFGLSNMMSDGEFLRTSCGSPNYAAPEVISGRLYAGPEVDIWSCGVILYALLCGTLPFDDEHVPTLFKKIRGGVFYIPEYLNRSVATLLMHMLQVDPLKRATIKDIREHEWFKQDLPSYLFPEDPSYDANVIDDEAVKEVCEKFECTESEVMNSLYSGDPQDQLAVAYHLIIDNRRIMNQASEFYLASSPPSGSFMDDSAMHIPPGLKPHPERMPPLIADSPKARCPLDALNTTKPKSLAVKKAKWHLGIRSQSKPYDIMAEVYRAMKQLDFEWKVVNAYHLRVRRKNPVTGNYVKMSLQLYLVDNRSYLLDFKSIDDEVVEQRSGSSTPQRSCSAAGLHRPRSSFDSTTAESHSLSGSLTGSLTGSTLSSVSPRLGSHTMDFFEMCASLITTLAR

Take `O=C(Nc1ccccc1-c1ccccc1)c1ccc(C(=O)N2CCN(Cc3ccc(F)cc3)CC2)cn1` [US10377742, Compound 19]: the concentration for a half-maximal effect (EC50) is over 1000 nM.
As for `O=C(Nc1ccc(-c2ccc([N+](=O)[O-])cc2)cc1)c1ccc(C(=O)N2CCN(Cc3ccc(F)cc3)CC2)cn1` [US10377742, Compound 20], the figure is over 1000 nM.

The record behind these values is BindingDB's records for patent US10377742 (Rigel Pharmaceuticals, 2019).
